For one series, the target named is T1, hNTS1R (Homo sapiens, UniProt P30989).
T1 construct: at hNTS1R expressing intact human HT-29 colon carcinoma cells; endogenous in cells; host or cells: HT-29 human colon carcinoma cells (intact)
Put plainly: Radioligand competition binding with [^3H]UR-MK300 at intact HT-29 cells. The settings on record: [^3H]UR-MK300 (Kd = […], c = 1 nM), 23 °C. On the procedure: Unspecific binding was subtracted from total binding to obtain specific binding. Data analysis was performed by plotting % specifically bound radioligand (100% = specifically bound radioligand in the absence of competitor) over log(concentration of competitor) followed by a four-parameter logistic fit (SigmaPlot 12.5, Systat Software). […] The Ki values from individual experiments were transformed to pKi values, followed by the calculation of mean pKi values ± SEM.

A short description of series [1]: In vitro stability in mouse plasma/PBS (1:2 v/v) at 37 °C. Format: in vitro ADME. The settings on record: read-out: % intact peptide in mouse plasma after the given incubation time. The procedure: (§1) The metabolic stabilities of 11–14, 16 and 18–21 (cf. Table 2) were investigated in human blood plasma/PBS (136.9 mM NaCl, 2.68 mM KCl, 5.62 mM Na2HPO4, 1.09 mM NaH2PO4 and 1.47 mM KH2PO4) pH 7.4 (1:2, v/v) according to a described procedure[13] with the following modifications: 5 mM stock solutions in EtOH/0.04% aq TFA (30:70 v/v) (11–13), MeCN/0.025% aq TFA (30:70 v/v) (14), MeCN/0.04% aq TFA (30:70 v/v) (16, 19 and 21) or EtOH/H2O (40:60 v/v) (18, 20) were used for the addition of the peptides to plasma/PBS (1:2 v/v). As the RP-HPLC purity of 1-Methyl-D-Trp (internal standard, IS) was < 95% (data not shown), the compound was purified by preparative HPLC to give a purity of > 99%. The concentration of the peptides in plasma/PBS (1:2 v/v) was 80 and 4 µM (recovery determination) or 100 µM (stability tests). The obtained recoveries and the recovery ratios (peptide/internal standard) are summarized in Supplementary Table S1. Data analysis was based on UV detection at 220 nm. Additionally, the stability of compound 21 was investigated in mouse plasma/PBS (1:2 v/v) using the same procedure as described above for human plasma. Mouse plasma was obtained by the collection of blood from anaesthetized mice via cardiac puncture using a syringe that was rinsed with sodium heparin (25,000 I.E., Ratiopharm, Ulm, Germany). The heparinized blood was transferred into a 2-mL reaction vessel, followed by centrifugation (1200 g, 4 °C, 10 min). The supernatants were pooled, centrifuged again (1200 g, 4 °C, 10 min), the plasma was aliquoted and stored at − 80 °C. The concentration of 21 in plasma/PBS (1:2 v/v) was 80 and 4 μM (recovery determination) or 100 μM (stability tests). The obtained recoveries and the recovery ratios (21/IS) are summarized in Supplementary Table S2. Data analysis was based on UV detection at 220 nm.

A short description of series [2]: In vitro stability in human plasma/PBS (1:2 v/v) at 37 °C. Format: in vitro ADME. The settings on record: human blood plasma/PBS (1:2 v/v), read-out: % intact peptide in human plasma after the given incubation time. The procedure: as §1

Each structure is given as a SMILES string. Read-outs that look alike come from different tables or passages of the source.

T1 sequence (P30989 whole entry): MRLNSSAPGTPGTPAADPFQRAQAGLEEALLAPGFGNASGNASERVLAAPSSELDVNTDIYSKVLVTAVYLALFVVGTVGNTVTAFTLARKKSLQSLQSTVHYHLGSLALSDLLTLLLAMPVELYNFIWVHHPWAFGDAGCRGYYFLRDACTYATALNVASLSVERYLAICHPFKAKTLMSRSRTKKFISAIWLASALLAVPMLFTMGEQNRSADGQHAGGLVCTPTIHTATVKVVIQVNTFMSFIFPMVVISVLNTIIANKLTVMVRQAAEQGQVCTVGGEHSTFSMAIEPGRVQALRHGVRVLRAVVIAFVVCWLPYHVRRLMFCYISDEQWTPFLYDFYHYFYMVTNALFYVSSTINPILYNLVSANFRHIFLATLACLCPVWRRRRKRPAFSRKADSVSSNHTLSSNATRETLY

With `CN[C@@H](CCCNC(=N)NC(=O)NCCCCNC(=O)CCc1cn([C@@H]2O[C@H](CF)[C@@H](O)[C@H](O)[C@H]2O)nn1)C(=O)N[C@@H](CCCNC(=N)N)C(=O)N1CCC[C@H]1C(=O)N[C@@H](Cc1ccc(O)cc1)C(=O)N[C@H](C(=O)N[C@@H](CC(C)C)C(=O)O)C(C)(C)C` [Compound 21, N^α-methyl-(N^ω-{N-[4-(3-{1-[6-deoxy-6-fluoro-β-D-glucopyranosyl]-1H-1,2,3-triazol-4-yl}propanoyl)aminobutyl]aminocarbonyl})Arg-Arg-Pro-Tyr-2-tert-butyl-Gly-Leu-OH tris(hydrotrifluoroacetate)], the Ki result on hNTS1R (mean) was “one-digit nanomolar range”; at hNTS1R (mean, read-out: Ki (converted)), 4.3 nM; on hNTS1R (read-out: pKi ± SEM (converted)), 4.07 nM. For the same compound, the remaining at 10 min, 100 µM in series [1] (pH 7.4, 10 min) was above 99%. Besides, the remaining at 1 h, 100 µM in series [1] (pH 7.4, 1 h) is above 99%; in series [2] (pH 7.4, 1 h) it was above 99%. Besides, the remaining at 2 h, 100 µM in series [1] (pH 7.4, 2 h) was above 99%. Further, the remaining at 6 h, 100 µM in series [1] (pH 7.4, 6 h) is above 99%; in series [2] (pH 7.4, 6 h), above 99%. Besides, the remaining at 24 h, 100 µM is above 99% in series [1] (pH 7.4, 24 h) and above 99% in series [2] (pH 7.4, 24 h). The remaining at 48 h, 100 µM in series [1] (pH 7.4, 48 h) was above 99%; in series [2] (pH 7.4, 48 h), 99 ± 1%.

The values above are taken from paper PMC9440028, “Neurotensin analogs by fluoroglycosylation at N^ω-carbamoylated arginines for PET imaging of NTS1-positive tumors” (Scientific Reports, 2022).
